# Measured values published in ChEMBL document CHEMBL3132790 (Medchemcomm, 2013).
# Legend:
# [1] = target: Histamine H4 receptor (Homo sapiens, UniProt Q9H3N8); experiment: Displacement of [3H]histamine from wild type human histamine H4 receptor transfected in HEK293T cells after 1.5 hrs by liquid scintillation counting analysis; format: cell-based, HEK-293T
# [2] = target: Histamine H4 receptor (Homo sapiens, UniProt Q9H3N8, L175V); experiment: Displacement of [3H]histamine from human histamine H4 receptor L175'5.39V mutant transfected in HEK293T cells after 1.5 hrs by liquid scintillation counting analysis; format: cell-based, HEK-293T
# [3] = target: Histamine H4 receptor (Homo sapiens, UniProt Q9H3N8, E182Q); experiment: Displacement of [3H]-JNJ 7777120 from human histamine H4 receptor E182'5.46Q mutant transfected in HEK293T cells after 1.5 hrs by liquid scintillation counting analysis
# Chain of Histamine H4 receptor (Homo sapiens, UniProt Q9H3N8, E182Q) (Q9H3N8 whole entry E182Q): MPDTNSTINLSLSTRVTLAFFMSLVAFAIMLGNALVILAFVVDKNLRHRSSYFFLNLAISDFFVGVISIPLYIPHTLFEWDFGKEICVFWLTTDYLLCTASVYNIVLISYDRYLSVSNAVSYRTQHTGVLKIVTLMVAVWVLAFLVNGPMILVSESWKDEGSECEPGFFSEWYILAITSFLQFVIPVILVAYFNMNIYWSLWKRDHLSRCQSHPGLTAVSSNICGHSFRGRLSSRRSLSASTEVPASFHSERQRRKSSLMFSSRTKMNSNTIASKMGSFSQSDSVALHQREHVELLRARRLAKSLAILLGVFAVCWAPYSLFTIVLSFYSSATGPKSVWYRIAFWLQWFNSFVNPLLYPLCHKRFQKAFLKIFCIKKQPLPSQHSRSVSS
# Chain of Histamine H4 receptor (Homo sapiens, UniProt Q9H3N8) (Q9H3N8 whole entry): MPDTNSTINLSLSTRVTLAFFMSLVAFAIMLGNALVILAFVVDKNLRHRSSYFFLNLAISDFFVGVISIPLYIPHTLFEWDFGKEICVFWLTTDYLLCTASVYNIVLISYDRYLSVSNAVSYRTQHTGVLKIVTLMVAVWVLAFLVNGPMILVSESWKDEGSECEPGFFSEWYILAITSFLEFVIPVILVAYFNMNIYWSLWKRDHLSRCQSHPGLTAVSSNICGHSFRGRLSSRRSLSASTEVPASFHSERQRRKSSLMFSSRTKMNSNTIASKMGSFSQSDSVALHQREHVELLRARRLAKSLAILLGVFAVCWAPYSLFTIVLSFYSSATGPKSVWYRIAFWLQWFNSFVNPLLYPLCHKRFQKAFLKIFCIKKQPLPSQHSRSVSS
# Chain of Histamine H4 receptor (Homo sapiens, UniProt Q9H3N8, L175V) (Q9H3N8 whole entry L175V): as the sequence (Q9H3N8 whole entry E182Q) above, with L175V, Q182E counted along it
SMILES,Ki [1] [nM],Ki [2] [nM],Ki [3] [nM]
COc1ccc2[nH]c(C(=O)N3CCN(C)CC3)cc2c1,5010,,
CN1CCN(C(=O)c2cc3cc([N+](=O)[O-])ccc3[nH]2)CC1,100,,
CN1CCN(c2cc(-c3ccc(N)cc3)nc(N)n2)CC1,5.01,,
CN1CCN(c2cc(-c3ccc([N+](=O)[O-])cc3)nc(N)n2)CC1,7.94,,
CN1CCN(c2cc(-c3ccccc3)nc(N)n2)CC1,,20,63.1
CN1CCN(c2cc(-c3ccc(Cl)cc3)nc(N)n2)CC1,2,63.1,200
COc1ccc(-c2cc(N3CCN(C)CC3)nc(N)n2)cc1,15.8,,
